Assay results published in US12448399B2, “Cereblon-based KRAS degrading PROTACs and uses related thereto” (Arvinas Operations, Inc., priority 2023, dated 2025).

Target: T1, KRas-G12D (Homo sapiens, UniProt P01116, G12D)
T1 construct: insert the HiBiT tag onto the N-terminus of one or more of the endogenous KRas alleles; host or cells: AsPC-1 HiBiT-KRasG12D knock-in clone (one tagged allele, two untagged KRasG12D alleles)
Experiment: HiBiT Degradation Assay (G12D), AsPC-1 HiBiT-KRasG12D cells, 24 hr
Assay type: cell-based
Settings: for Dmax: ASPC1, AsPC-1 cells, maximum degradation observed; for DC50: AsPC-1 cells
Summary of the method: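 Degradation was read after 24 hr compound exposure (0.5% DMSO, 37° C) by Nano-Glo HiBiT lytic luminescence in AsPC-1 cells carrying a HiBiT tag on one of three KRasG12D alleles. Signal relative to DMSO gave DC50 and Dmax by 4-parameter fit; alamar blue fluorescence monitored cytotoxicity.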

T1 sequence (P01116 1-188 isoform P01116-2 G12D): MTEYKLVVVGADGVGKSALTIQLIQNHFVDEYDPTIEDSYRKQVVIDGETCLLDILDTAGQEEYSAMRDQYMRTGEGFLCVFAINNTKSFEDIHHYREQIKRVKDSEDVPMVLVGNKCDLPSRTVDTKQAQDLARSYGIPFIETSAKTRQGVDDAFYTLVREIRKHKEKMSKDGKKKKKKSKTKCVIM

Compound	Dmax	DC50
C#Cc1c(F)ccc2cc(O)cc(-c3ncc4c(N5CC6CCC(C5)N6)nc(OCCN5CCN(CC6CCN(CC7CCN(c8ccc9c(c8F)CN(C8CCC(=O)NC8=O)C9=O)CC7)CC6)CC5(C)C)nc4c3F)c12 (stereo not shown) [Compound 174, 3-{5-[4-({4-[(4-{2-[(4-{3,8-diazabicyclo[3.2.1]octan-3-yl}-7-(8-ethynyl-7-fluoro-3-hydroxynaphthalen-1-yl)-8-fluoropyrido[4,3-d]pyrimidin-2-yl)oxy]ethyl}-3,3-dimethylpiperazin-1-yl)methyl]piperidin-1-yl}methyl)piperidin-1-yl]-4-fluoro-1-oxo-2,3-dihydro-1H-isoindol-2-yl}piperidine-2,6-dione]	> 70%	< 5.1 µM
C#Cc1c(F)ccc2cc(O)cc(-c3ncc4c(N5CC6CCC(C5)N6)nc(OCCN5CCC(CC6CCN(c7ccc8c(c7)n(C(C)C)c(=O)n8C7CCC(=O)NC7=O)CC6)CC5)nc4c3F)c12 (stereo not shown) [Compound 175, 3-(5-{4-[(1-{2-[(4-{3,8-diazabicyclo[3.2.1]octan-3-yl}-7-(8-ethynyl-7-fluoro-3-hydroxynaphthalen-1-yl)-8-fluoropyrido[4,3-d]pyrimidin-2-yl)oxy]ethyl}piperidin-4-yl)methyl]piperidin-1-yl}-2-oxo-3-(propan-2-yl)-2,3-dihydro-1H-1,3-benzodiazol-1-yl)piperidine-2,6-dione]	> 70%	< 5.1 µM
C#Cc1c(F)ccc2cc(O)cc(-c3ncc4c(N5CC6CCC(C5)N6)nc(OC[C@@H]5CC[C@@H](CN6CCN(c7ccc8c(c7)n(C(C)C)c(=O)n8C7CCC(=O)NC7=O)CC6)N5C)nc4c3F)c12 (stereo partly drawn) [Compound 176, 3-[5-(4-{[(2S,5S)-5-{[(4-{3,8-diazabicyclo[3.2.1]octan-3-yl}-7-(8-ethynyl-7-fluoro-3-hydroxynaphthalen-1-yl)-8-fluoropyrido[4,3-d]pyrimidin-2-yl)oxy]methyl}-1-methylpyrrolidin-2-yl]methyl}piperazin-1-yl)-2-oxo-3-(propan-2-yl)-2,3-dihydro-1H-1,3-benzodiazol-1-yl]piperidine-2,6-dione]	> 70%	< 5.1 µM
CCc1c(F)ccc2cc(O)cc(-c3ncc4c(N5CC6CCC(C5)N6)nc(OC[C@@H]5C[C@@H](OC6CCN(CC7CCN(c8ccc9c(c8Cl)CN(C8CCC(=O)NC8=O)C9=O)CC7)CC6)CN5C)nc4c3F)c12 (stereo partly drawn) [Compound 177, 3-(4-chloro-5-{4-[(4-{[(3R,5S)-5-{[(4-{3,8-diazabicyclo[3.2.1]octan-3-yl}-7-(8-ethyl-7-fluoro-3-hydroxynaphthalen-1-yl)-8-fluoropyrido[4,3-d]pyrimidin-2-yl)oxy]methyl}-1-methylpyrrolidin-3-yl]oxy}piperidin-1-yl)methyl]piperidin-1-yl}-1-oxo-2,3-dihydro-1H-isoindol-2-yl)piperidine-2,6-dione]	> 70%	< 5.1 µM
CCc1c(F)ccc2cc(O)cc(-c3ncc4c(N5CC6CCC(C5)N6)nc(OC[C@@H]5C[C@@H](OC6CCN(CC7CCN(c8ccc9c(c8F)CN(C8CCC(=O)NC8=O)C9=O)CC7)CC6)CN5C)nc4c3F)c12 (stereo partly drawn) [Compound 178, 3-(5-{4-[(4-{[(3R,5S)-5-{[(4-{3,8-diazabicyclo[3.2.1]octan-3-yl}-7-(8-ethyl-7-fluoro-3-hydroxynaphthalen-1-yl)-8-fluoropyrido[4,3-d]pyrimidin-2-yl)oxy]methyl}-1-methylpyrrolidin-3-yl]oxy}piperidin-1-yl)methyl]piperidin-1-yl}-4-fluoro-1-oxo-2,3-dihydro-1H-isoindol-2-yl)piperidine-2,6-dione]	> 70%	< 5.1 µM
CCc1c(F)ccc2cc(O)cc(-c3ncc4c(N5CC6CCC(C5)N6)nc(OCCN5CCC(C)(CC6CCN(CC7CCN(c8ccc9c(c8)n(C)c(=O)n9C8CCC(=O)NC8=O)CC7)CC6)CC5)nc4c3F)c12 (stereo not shown) [Compound 179, 3-{5-[4-({4-[(1-{2-[(4-{3,8-diazabicyclo[3.2.1]octan-3-yl}-7-(8-ethyl-7-fluoro-3-hydroxynaphthalen-1-yl)-8-fluoropyrido[4,3-d]pyrimidin-2-yl)oxy]ethyl}-4-methylpiperidin-4-yl)methyl]piperidin-1-yl}methyl)piperidin-1-yl]-3-methyl-2-oxo-2,3-dihydro-1H-1,3-benzodiazol-1-yl}piperidine-2,6-dione]	> 70%	< 5.1 µM
CCc1c(F)ccc2cc(O)cc(-c3ncc4c(N5CC6CCC(C5)N6)nc(OCCN5CCC(C)(CN6CCN(CC7CCN(c8ccc9c(c8)n(C)c(=O)n9C8CCC(=O)NC8=O)CC7)CC6)CC5)nc4c3F)c12 (stereo not shown) [Compound 180, 3-{5-[4-({4-[(1-{2-[(4-{3,8-diazabicyclo[3.2.1]octan-3-yl}-7-(8-ethyl-7-fluoro-3-hydroxynaphthalen-1-yl)-8-fluoropyrido[4,3-d]pyrimidin-2-yl)oxy]ethyl}-4-methylpiperidin-4-yl)methyl]piperazin-1-yl}methyl)piperidin-1-yl]-3-methyl-2-oxo-2,3-dihydro-1H-1,3-benzodiazol-1-yl}piperidine-2,6-dione]	> 70%	< 5.1 µM
CCc1c(F)ccc2cc(O)cc(-c3ncc4c(N5CC6CCC(C5)N6)nc(OCCN5CCC(F)(CN6CCN(CC7CCN(c8ccc9c(c8)n(C)c(=O)n9C8CCC(=O)NC8=O)CC7)CC6)CC5)nc4c3F)c12 (stereo not shown) [Compound 181, 3-{5-[4-({4-[(1-{2-[(4-{3,8-diazabicyclo[3.2.1]octan-3-yl}-7-(8-ethyl-7-fluoro-3-hydroxynaphthalen-1-yl)-8-fluoropyrido[4,3-d]pyrimidin-2-yl)oxy]ethyl}-4-fluoropiperidin-4-yl)methyl]piperazin-1-yl}methyl)piperidin-1-yl]-3-methyl-2-oxo-2,3-dihydro-1H-1,3-benzodiazol-1-yl}piperidine-2,6-dione]	> 70%	< 5.1 µM
CCc1c(F)ccc2cc(O)cc(-c3ncc4c(N5CC6CCC(C5)N6)nc(OCCN5CCC(F)(CC6CCN(CC7CCN(c8ccc9c(c8)n(C)c(=O)n9C8CCC(=O)NC8=O)CC7)CC6)CC5)nc4c3F)c12 (stereo not shown) [Compound 182, 3-{5-[4-({4-[(1-{2-[(4-{3,8-diazabicyclo[3.2.1]octan-3-yl}-7-(8-ethyl-7-fluoro-3-hydroxynaphthalen-1-yl)-8-fluoropyrido[4,3-d]pyrimidin-2-yl)oxy]ethyl}-4-fluoropiperidin-4-yl)methyl]piperidin-1-yl}methyl)piperidin-1-yl]-3-methyl-2-oxo-2,3-dihydro-1H-1,3-benzodiazol-1-yl}piperidine-2,6-dione]	> 70%	< 5.1 µM
C#Cc1c(F)ccc2cc(O)cc(-c3ncc4c(N5CC6CCC(C5)N6)nc(OCCN5CCC(F)(CN6CCC(CC7CCN(c8ccc9c(c8)n(C)c(=O)n9C8CCC(=O)NC8=O)CC7)CC6)CC5)nc4c3F)c12 (stereo not shown) [Compound 183, 3-{5-[4-({1-[(1-{2-[(4-{3,8-diazabicyclo[3.2.1]octan-3-yl}-7-(8-ethynyl-7-fluoro-3-hydroxynaphthalen-1-yl)-8-fluoropyrido[4,3-d]pyrimidin-2-yl)oxy]ethyl}-4-fluoropiperidin-4-yl)methyl]piperidin-4-yl}methyl)piperidin-1-yl]-3-methyl-2-oxo-2,3-dihydro-1H-1,3-benzodiazol-1-yl}piperidine-2,6-dione]	> 70%	< 5.1 µM
C#Cc1c(F)ccc2cc(O)cc(-c3ncc4c(N5CC6CCC(C5)N6)nc(OC[C@@H](C)N5CCC(CC6CCN(CC7CCN(c8ccc9c(c8)n(C(C)C)c(=O)n9C8CCC(=O)NC8=O)CC7)CC6)CC5)nc4c3F)c12 (stereo partly drawn) [Compound 184, 3-[5-(4-{[4-({1-[(2R)-1-[(4-{3,8-diazabicyclo[3.2.1]octan-3-yl}-7-(8-ethynyl-7-fluoro-3-hydroxynaphthalen-1-yl)-8-fluoropyrido[4,3-d]pyrimidin-2-yl)oxy]propan-2-yl]piperidin-4-yl}methyl)piperidin-1-yl]methyl}piperidin-1-yl)-2-oxo-3-(propan-2-yl)-2,3-dihydro-1H-1,3-benzodiazol-1-yl]piperidine-2,6-dione]	> 70%	< 5.1 µM
C#Cc1c(F)ccc2cc(O)cc(-c3ncc4c(N5CC6CCC(C5)N6)nc(OC[C@@H](C)N5CCC(CC6CCN(CC7CCN(c8ccc9c(c8F)CN(C8CCC(=O)NC8=O)C9=O)CC7)CC6)CC5)nc4c3F)c12 (stereo partly drawn) [Compound 185, 3-[5-(4-{[4-({1-[(2R)-1-[(4-{3,8-diazabicyclo[3.2.1]octan-3-yl}-7-(8-ethynyl-7-fluoro-3-hydroxynaphthalen-1-yl)-8-fluoropyrido[4,3-d]pyrimidin-2-yl)oxy]propan-2-yl]piperidin-4-yl}methyl)piperidin-1-yl]methyl}piperidin-1-yl)-4-fluoro-1-oxo-2,3-dihydro-1H-isoindol-2-yl]piperidine-2,6-dione]	> 70%	< 5.1 µM
C#Cc1c(F)ccc2cc(O)cc(-c3ncc4c(N5CC6CCC(C5)N6)nc(OCC5(CN6CCN(CC7CCN(c8ccc9c(c8Cl)CN(C8CCC(=O)NC8=O)C9=O)CC7)CC6)CC5)nc4c3F)c12 (stereo not shown) [Compound 186, 3-{4-chloro-5-[4-({4-[(1-{[(4-{3,8-diazabicyclo[3.2.1]octan-3-yl}-7-(8-ethynyl-7-fluoro-3-hydroxynaphthalen-1-yl)-8-fluoropyrido[4,3-d]pyrimidin-2-yl)oxy]methyl}cyclopropyl)methyl]piperazin-1-yl}methyl)piperidin-1-yl]-1-oxo-2,3-dihydro-1H-isoindol-2-yl}piperidine-2,6-dione]	> 70%	< 5.1 µM
C#Cc1c(F)ccc2cc(O)cc(-c3ncc4c(N5CC6CCC(C5)N6)nc(OCC5(CN6CCC(CN7CCN(c8ccc9c(c8Cl)CN(C8CCC(=O)NC8=O)C9=O)CC7)CC6)CC5)nc4c3F)c12 (stereo not shown) [Compound 187, 3-{4-chloro-5-[4-({1-[(1-{[(4-{3,8-diazabicyclo[3.2.1]octan-3-yl}-7-(8-ethynyl-7-fluoro-3-hydroxynaphthalen-1-yl)-8-fluoropyrido[4,3-d]pyrimidin-2-yl)oxy]methyl}cyclopropyl)methyl]piperidin-4-yl}methyl)piperazin-1-yl]-1-oxo-2,3-dihydro-1H-isoindol-2-yl}piperidine-2,6-dione]	> 70%	< 5.1 µM
